Patent US20230312542A1, “HYDROXYPYRROLIDINE DERIVATIVE AND MEDICINAL APPLICATION THEREOF” (MITSUBISHI TANABE PHARMA CORPORATION, priority 2020, published 2023)

Target: VHL (co-expressed with Elongin B and Elongin C) (Homo sapiens (Human), UniProt P40337)
Assay: Measurement of intermolecular interactions using surface plasmon resonance (Biacore T200), Kd value for VHL
Format: binding
Conditions: SPR, immobilized VHL, 25° C.; read-out: Kd
Source text: As the device, Biacore T200 (manufactured by GE Healthcare) was used. VHL was obtained by co-expressing Elongin B and Elongin C with a Twin-Strep-tag added to the N-terminus. As the sensor chip, Sensor chip CM5 (manufactured by GE Healthcare) was used. First, Strep-Tactin XT (manufactured by GE Healthcare) was immobilized on the sensor chip by amine coupling. Thereafter, VHL was immobilized using the affinity of Strep-Tactin XT and Twin-Strep-tag, and VHL was further immobilized on the sensor chip by amine coupling.
As the running buffer, a mixed solution of 20 mM HEPES pH 7.5, 150 mM NaCl, 1 mM TCEP, 0.005% Tween 20, and 2% DMSO was used. […] The Contact time and the Dissociation time were determined according to the properties of the compounds. For many compounds, 60 seconds and 120 seconds were respectively used.

Sequence of VHL (co-expressed with Elongin B and Elongin C) (P40337 whole entry, looked up): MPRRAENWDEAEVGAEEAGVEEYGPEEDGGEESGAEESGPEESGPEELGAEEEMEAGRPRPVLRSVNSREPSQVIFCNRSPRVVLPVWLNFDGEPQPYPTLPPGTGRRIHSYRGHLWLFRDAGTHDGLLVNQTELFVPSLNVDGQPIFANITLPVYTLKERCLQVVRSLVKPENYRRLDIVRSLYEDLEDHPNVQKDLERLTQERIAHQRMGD
Sequence of VHL (co-expressed with Elongin B and Elongin C) (Q15370 whole entry partner, looked up): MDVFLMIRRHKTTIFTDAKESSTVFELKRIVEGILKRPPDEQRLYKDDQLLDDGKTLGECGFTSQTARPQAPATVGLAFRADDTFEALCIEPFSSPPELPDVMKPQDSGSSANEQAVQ
Sequence of VHL (co-expressed with Elongin B and Elongin C) (Q15369 whole entry partner, looked up): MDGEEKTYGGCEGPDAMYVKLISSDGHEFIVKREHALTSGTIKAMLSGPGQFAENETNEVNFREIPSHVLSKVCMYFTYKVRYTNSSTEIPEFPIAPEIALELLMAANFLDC

Row | SMILES | Kd
1 | COc1cc(C(C(=O)N2C[C@H](O)C[C@H]2c2nc(C(=O)N3CCC(c4ccc(C)cn4)CC3)c[nH]2)C(C)C)on1 (stereo partly drawn) [Example 144, 1-[(2S,4R)-4-hydroxy-2-[4-[4-(5-methyl-2-pyridyl)piperidine-1-carbonyl]-1H-imidazol-2-yl]pyrrolidin-1-yl]-2-(3-methoxyisoxazol-5-yl)-3-methylbutan-1-one] | 1 to 10 µM
2 | CCCc1nnc(C(C(=O)N2C[C@H](O)C[C@H]2c2ncc[nH]2)C(C)C)o1 (stereo partly drawn) [Example 162, 1-[(2S,4R)-4-hydroxy-2-(1H-imidazol-2-yl)pyrrolidin-1-yl]-3-methyl-2-(5-propyl-1,3,4-oxadiazol-2-yl) butan-1-one] | 10 to 50 µM
3 | CC(=O)N[C@H](C(=O)N1C[C@H](O)C[C@H]1c1nc(C(=O)N(C)Cc2cccc(C(F)(F)F)c2)c[nH]1)C(C)(C)C [Example 21, 2-[(2S,4R)-1-[(2S)-2-acetamido-3,3-dimethylbutanoyl]-4-hydroxypyrrolidin-2-yl]-N-methyl-N-[[3-(trifluoromethyl)phenyl]methyl]-1H-imidazole-4-carboxamide] | 1 to 10 µM
4 | COc1cc(C(C(=O)N2C[C@H](O)C[C@H]2c2nc(C(=O)N3CCN(c4ccccc4)CC3)c[nH]2)C(C)C)on1 (stereo partly drawn) [Example 140, 1-[(2S,4R)-4-hydroxy-2-[4-(4-phenylpiperazine-1-carbonyl)-1H-imidazol-2-yl]pyrrolidin-1-yl]-2-(3-methoxyisoxazol-5-yl)-3-methylbutan-1-one] | 1 to 10 µM
5 | COc1cc(C(C(=O)N2C[C@H](O)C[C@H]2c2ncc[nH]2)C(C)C)on1 (stereo partly drawn) [Example 112, 1-[(2S,4R)-4-hydroxy-2-(1H-imidazol-2-yl)pyrrolidin-1-yl]-2-(3-methoxyisoxazol-5-yl)-3-methylbutan-1-one] | 1 to 10 µM
6 | COc1cc(C(C(=O)N2C[C@H](O)C[C@H]2c2nc(C(=O)N3CCC(c4ccncc4)CC3)c[nH]2)C(C)C)on1 (stereo partly drawn) [Example 139, 1-[(2S,4R)-4-hydroxy-2-[4-[4-(4-pyridyl)piperidine-1-carbonyl]-1H-imidazol-2-yl]pyrrolidin-1-yl]-2-(3-methoxyisoxazol-5-yl)-3-methylbutan-1-one] | 1 to 10 µM
7 | COc1cc(C(C(=O)N2C[C@H](O)C[C@H]2c2nc(C(=O)N3CCCC(C(=O)Nc4ccccc4)C3)c[nH]2)C(C)C)on1 (stereo partly drawn) [Example 148, 1-[2-[(2S,4R)-4-hydroxy-1-[2-(3-methoxyisoxazol-5-yl)-3-methylbutanoyl]pyrrolidin-2-yl]-1H-imidazole-4-carbonyl]-N-phenylpiperidine-3-carboxamide] | 1 to 10 µM
8 | CC(=O)N[C@H](C(=O)N1C[C@H](O)C[C@H]1c1ncc(Cc2cccc(Br)c2)[nH]1)C(C)(C)C [Example 90, N-[(2S)-1-[(2S,4R)-2-[5-[(3-bromophenyl)methyl]-1H-imidazol-2-yl]-4-hydroxypyrrolidin-1-yl]-3,3-dimethyl-1-oxobutan-2-yl]acetamide] | 1 to 10 µM
9 | CC(=O)N[C@H](C(=O)N1C[C@H](O)C[C@H]1c1ncc(Cc2ccc(-c3scnc3C)cc2)[nH]1)C(C)(C)C [Example 93, N-[(1S)-1-[(2S,4R)-4-hydroxy-2-[5-[[4-(4-methyl-1,3-thiazol-5-yl)phenyl]methyl]-1H-imidazol-2-yl]pyrrolidin-1-yl]-3,3-dimethyl-1-oxobutan-2-yl]acetamide] | 1 to 10 µM
10 | CC(=O)N[C@H](C(=O)N1C[C@H](O)C[C@H]1c1nc(C(=O)N(C)Cc2ccc(F)cc2)c[nH]1)C(C)(C)C [Example 19, 2-[(2S,4R)-1-[(2S)-2-acetamido-3,3-dimethylbutanoyl]-4-hydroxypyrrolidin-2-yl]-N-[(4-fluorophenyl)methyl]-N-methyl-1H-imidazole-4-carboxamide] | 1 to 10 µM
11 | CC(=O)N[C@H](C(=O)N1C[C@H](O)C[C@H]1c1nc(C(=O)N(C)Cc2cccc(Cl)c2)c[nH]1)C(C)(C)C [Example 15, 2-[(2S,4R)-1-[(2S)-2-acetamido-3,3-dimethylbutanoyl]-4-hydroxypyrrolidin-2-yl]-N-[(3-chlorophenyl)methyl]-N-methyl-1H-imidazole-4-carboxamide] | 1 to 10 µM
12 | CC(=O)N[C@H](C(=O)N1C[C@H](O)C[C@H]1c1nc(C(=O)N(C)Cc2ccccc2C(F)(F)F)c[nH]1)C(C)(C)C [Example 20, 2-[(2S,4R)-1-[(2S)-2-acetamido-3,3-dimethylbutanoyl]-4-hydroxypyrrolidin-2-yl]-N-methyl-N-[[2-(trifluoromethyl)phenyl]methyl]-1H-imidazole-4-carboxamide] | 1 to 10 µM
13 | COc1cc(C(C(=O)N2C[C@H](O)C[C@H]2c2nc(C(=O)N3CCC(c4ccccc4)C3)c[nH]2)C(C)C)on1 (stereo partly drawn) [Example 111, 1-[(2S,4R)-4-hydroxy-2-[4-(3-phenylpyrrolidine-1-carbonyl)-1H-imidazol-2-yl]pyrrolidin-1-yl]-2-(3-methoxyisoxazol-5-yl)-3-methylbutan-1-one] | < 1 µM
14 | CC(=O)N[C@H](C(=O)N1C[C@H](O)C[C@H]1c1nc(C(=O)N(C)Cc2ccc(-c3scnc3C)cc2)c[nH]1)C(C)(C)C [Example 35, 2-[(2S,4R)-1-[(2S)-2-acetamido-3,3-dimethylbutanoyl]-4-hydroxypyrrolidin-2-yl]-N-methyl-N-[[4-(4-methyl-1,3-thiazol-5-yl)phenyl]methyl]-1H-imidazole-4-carboxamide] | 1 to 10 µM
15 | COc1cc(C(C(=O)N2C[C@H](O)C[C@H]2c2nc(C(=O)N3CCC(Oc4ccccc4)CC3)c[nH]2)C(C)C)on1 (stereo partly drawn) [Example 1, 1-[(2S,4R)-4-hydroxy-2-[4-(4-phenoxypiperidine-1-carbonyl)-1H-imidazol-2-yl]pyrrolidin-1-yl]-2-(3-methoxy-1,2-oxazol-5-yl)-3-methylbutan-1-one] | 1 to 10 µM

The remaining lines, values ahead:

Row | Kd | SMILES
16 | < 1 µM | COc1cc(C(C(=O)N2C[C@H](O)C[C@H]2c2nc(C(=O)N(C)Cc3ccc(-c4ccc(C)nc4)cc3)c[nH]2)C(C)C)on1 (stereo partly drawn) [Example 154, 2-[(2S,4R)-4-hydroxy-1-[2-(3-methoxyisoxazol-5-yl)-3-methylbutanoyl]pyrrolidin-2-yl]-N-methyl-N-[[4-(6-methyl-3-pyridyl)phenyl]methyl]-1H-imidazole-4-carboxamide]
17 | 10 to 50 µM | COc1cc(C(C(=O)N2C[C@H](O)C[C@H]2c2nccn2Cc2ccnc(-c3ccc(C(F)(F)F)cc3)c2)C(C)C)on1 (stereo partly drawn) [Example 102, 1-[(2S,4R)-4-hydroxy-2-[1-[[2-[4-(trifluoromethyl)phenyl]-4-pyridyl]methyl]imidazol-2-yl]pyrrolidin-1-yl]-2-(3-methoxyisoxazol-5-yl)-3-methylbutan-1-one]
18 | 10 to 50 µM | COc1cc(C(C(=O)N2C[C@H](O)C[C@H]2c2nccn2Cc2cccc(Oc3ccccc3)c2)C(C)C)on1 (stereo partly drawn) [Example 65, 1-[(2S,4R)-4-hydroxy-2-[1-[(3-phenoxyphenyl)methyl]imidazol-2-yl]pyrrolidin-1-yl]-2-(3-methoxy-1,2-oxazol-5-yl)-3-methylbutan-1-one]
19 | 1 to 10 µM | COc1cc(C(C(=O)N2C[C@H](O)C[C@H]2c2ncc(Cc3ccc(C(F)(F)F)cc3)[nH]2)C(C)C)on1 (stereo partly drawn) [Example 79, 1-[(2S,4R)-4-hydroxy-2-[5-[[4-(trifluoromethyl)phenyl]methyl]-1H-imidazol-2-yl]pyrrolidin-1-yl]-2-(3-methoxy-1,2-oxazol-5-yl)-3-methylbutan-1-one]
20 | 10 to 50 µM | COc1cc(C(C(=O)N2C[C@H](O)C[C@H]2c2nccn2Cc2ccccc2Oc2ccccc2)C(C)C)on1 (stereo partly drawn) [Example 69, 1-[(2S,4R)-4-hydroxy-2-[1-[(2-phenoxyphenyl)methyl]imidazol-2-yl]pyrrolidin-1-yl]-2-(3-methoxy-1,2-oxazol-5-yl)-3-methylbutan-1-one]
21 | < 1 µM | COc1cc(C(C(=O)N2C[C@H](O)C[C@H]2c2nc(C(=O)N(C)Cc3ccc(-c4ccnc(C)c4)cc3)c[nH]2)C(C)C)on1 (stereo partly drawn) [Example 153, 2-[(2S,4R)-4-hydroxy-1-[2-(3-methoxyisoxazol-5-yl)-3-methylbutanoyl]pyrrolidin-2-yl]-N-methyl-N-[[4-(2-methyl-4-pyridyl)phenyl]methyl]-1H-imidazole-4-carboxamide]
22 | 1 to 10 µM | COc1cc(C(C(=O)N2C[C@H](O)C[C@H]2c2nc(C(=O)N(Cc3ccc(-c4scnc4C)cc3)CC(F)(F)F)c[nH]2)C(C)C)on1 (stereo partly drawn) [Example 40, 2-[(2S,4R)-4-hydroxy-1-[2-(3-methoxy-1,2-oxazol-5-yl)-3-methylbutanoyl]pyrrolidin-2-yl]-N-[[4-(4-methyl-1,3-thiazol-5-yl)phenyl]methyl]-N-(22,2-trifluoroethyl)-1H-imidazole-4-carboxamide]
23 | 10 to 50 µM | COc1cc(C(C(=O)N2C[C@H](O)C[C@H]2c2nccn2Cc2cncc(-c3ccc(F)cc3)c2)C(C)C)on1 (stereo partly drawn) [Example 113, 1-[(2S,4R)-2-[1-[[5-(4-fluorophenyl)-3-pyridyl]methyl]imidazol-2-yl]-4-hydroxypyrrolidin-1-yl]-2-(3-methoxyisoxazol-5-yl)-3-methylbutan-1-one]
24 | 1 to 10 µM | COc1ccc(-c2cnc([C@@H]3C[C@@H](O)CN3C(=O)C(c3cc(OC)no3)C(C)C)[nH]2)cc1 (stereo partly drawn) [Example 78, 1-[(2S,4R)-4-hydroxy-2-[5-(4-methoxyphenyl)-1H-imidazol-2-yl]pyrrolidin-1-yl]-2-(3-methoxy-1,2-oxazol-5-yl)-3-methylbutan-1-one]
25 | 10 to 50 µM | COc1cc(C(C(=O)N2C[C@H](O)C[C@H]2c2nccn2Cc2ccccc2OCc2ccccc2)C(C)C)on1 (stereo partly drawn) [Example 66, 1-[(2S,4R)-4-hydroxy-2-[1-[(2-phenylmethoxyphenyl)methyl]imidazol-2-yl]pyrrolidin-1-yl]-2-(3-methoxy-1,2-oxazol-5-yl)-3-methylbutan-1-one]
